A word on the IC50: it is the concentration at which inhibition is half-maximal. One may read the melting point as the temperature of the solid-liquid transition.

≈ marks a conversion by molar mass, not a printed value. Where two headings read alike, the source gives them in different places. Some results are limits rather than exact numbers.

In one data set the test system is ROCK1. The conditions noted are these: read-out: IC50 for ROCK1; cited from earlier work.
The next data set deals with HCC. The conditions noted are these: Figure 1; cited from earlier work.
In data set [1] the test system is A549. Further details: method as in doi:10.1016/j.arabjc.2016.10.009. The conditions noted are these: values marked *; read-out: IC50 A-549; cited from earlier work.
The test system of the next data set is Caco-2. Nature of the data set: WST-1 test, colon cancer cells. The class given is cell-based, human. The conditions noted are these: Homo sapiens, Caco-2, 72 h. The protocol:
Hybrids 4–14 were tested as anticancer agents against four human cancer cell lines: colon cancer (Caco-2), glioblastoma (SNB-19), lung cancer (A549), ovarian cancer (SKOV-3), and normal human dermal fibroblasts (NHDFs).
(§1) Cell cultures were performed in 96-well plates (Nunc Thermo Fisher Scientific, Waltham, MA, USA). Cells were seeded at 5 × 10^4/well and incubated for 24 h (at 37 °C, 5% CO2, and constant humidity). The medium was replaced with fresh with the addition of test compounds at a concentration of 0.1–100 µg/mL of DMSO and incubated again for another 72 h. After this time, the WST-1 test (Roche Molecular Biochemicals, Mannheim, Germany) was performed to assess the metabolic activity of the cells. Absorbance was measured at λ = 450 nm using a UVM340 microplate reader (Biogenet, Józefów, Poland). Results are expressed as the mean value of at least three independent experiments performed in triplicate.

The next data set deals with SKOV-3. Nature of the data set: WST-1 test, ovarian cancer cells. In kind it is cell-based, human. The conditions noted are these: Homo sapiens, SK-OV-3, 72 h. The method, then:
(§2) Hybrids 4–14 were tested as anticancer agents against four human cancer cell lines: colon cancer (Caco-2), glioblastoma (SNB-19), lung cancer (A549), ovarian cancer (SKOV-3), and normal human dermal fibroblasts (NHDFs). Cisplatin was used as the reference substance. The results are presented as the compound concentration of the compound (μM) that inhibits the growth of 50% of cancer cells compared to control cells (IC50). A negative value (Neg) means that the compound concentration of the tested hybrids was greater than 500 µM. […] It is generated only by a weak van der Waals interaction with Arg84. […] There is also a visible difference in activity depending on the type of group present on the triazole ring (substituent C in Figure 2). The results obtained indicate that hybrids containing aromatic systems as a C substituent in their structure, especially another quinoline molecule (compounds 9 and 10), have high activity.
as §1
Background: Tetrazolium dyes change colour on reduction, which living cells bring about.

The subject of the next data set is NHDF. Nature of the data set: WST-1 test, normal human dermal fibroblasts. In kind it is cell-based. The conditions noted are these: 72 h, WST-1, normal cells; for IC50: Homo sapiens, NHDF. The method, then: as §2, §1
In a further data set the test system is SNB-19. Nature of the data set: WST-1 test, glioblastoma cells. The class given is cell-based, human. The method, then: as §2, §1
Data set [2] has as its system A549. In words: WST-1 test, lung cancer cells. In kind it is cell-based, human. The conditions noted are these: for IC50: Homo sapiens, A549, 72 h, read-out: IC50 A-549. The protocol: as §2, §1

With `O=S(=O)(c1cccc2cnccc12)N1CCCNCC1` [Fasudil], the IC50 with ROCK1 was […]. In the data set with HCC, the “IC50 HCC” value was 0.04 µg/mL (≈ 0.137 µM).

For the compound `CCCCn1cc(CNS(=O)(=O)c2cccc3cccnc23)nn1` [Compound 12a, 8-N-{[1-(1-butyl)-1H-1,2,3-triazol-4-yl]methyl}quinolinesulfonamide], the half-maximal inhibitory concentration (IC50) is over 500 µM in the data set on A549 [1]; 0.38 µM with Caco-2; 53.9 µM in the data set with SKOV-3; over 500 µM in the data set on NHDF; 0.44 µM in the data set with SNB-19 (Homo sapiens, SNB-19, 72 h).

For `O=S(=O)(NCc1cn(-c2ccnc3cc(Cl)ccc23)nn1)c1cccc2cccnc12` [Compound 9a, 8-N-{[1-(7-chloroquinolin-4-yl)-1H-1,2,3-triazol-4-yl]methyl}quinolinesulfonamide], the half-inhibitory concentration (IC50) with A549 [1] is over 500 µM; in the data set with Caco-2, 18 µM; in the data set on SKOV-3, 108 µM; in the data set on NHDF, over 500 µM; with SNB-19 (Homo sapiens, SNB-19, 72 h), 62.4 µM.

As for `CCOC(=O)CCn1cc(CNS(=O)(=O)c2cccc3cccnc23)nn1` [Compound 13a, Ethyl 3-{[4-(8-sulfamoylquinolyl)methyl]-1H-1,2,3-triazol-1-yl}propanoate], the IC50 was over 500 µM in the data set with A549 [1]; 0.32 µM in the data set with Caco-2; 64.6 µM in the data set with SKOV-3; 223 µM in the data set on NHDF; 0.39 µM in the data set with SNB-19 (72 h); at most 0.4 µM in the data set with SNB-19 (Homo sapiens, SNB-19, 72 h).

Turning to `C=C(Cn1cc(CN(C)S(=O)(=O)c2cccc3cccnc23)nn1)[C@@H]1CC[C@]2(COC(C)=O)CC[C@]3(C)[C@H](CC[C@@H]4[C@@]5(C)CC[C@H](OC(C)=O)C(C)(C)[C@@H]5CC[C@]43C)[C@@H]12` [Compound 14b, 8-N-methyl-N-({1-[3β, 28-diacetoxylup-20(29)-en-30-yl]-1H-1,2,3-triazol-4-yl}methyl)-quinolinesulfonamide], the 50% inhibitory concentration (IC50) in the data set with A549 [1] is over 500 µM; in the data set on Caco-2, 18.2 µM; with SKOV-3, 1.09 µM; in the data set on NHDF, over 500 µM; with SNB-19 (Homo sapiens, SNB-19, 72 h) it was 9.26 µM.

Compound `CN(Cc1cn(Cc2ccc(C#N)cc2)nn1)S(=O)(=O)c1cccc2cccnc12` [Compound 5b, 8-N-Methyl-N-{[1-(4-cyanobenzyl)-1H-1,2,3-triazol-4-yl]methyl}quinolinesulfonamide] displayed a melting point of 112 to 113 °C. Besides, in the data set with Caco-2, the IC50 worked out at 0.4 µM. The “IC50 A-549” value in the data set on A549 [2] (72 h) is on record as “nanomolar concentration range”. For the same compound, the IC50 in the data set with A549 [2] came to 0.8 µM. This compound also displayed an IC50 in the data set on SKOV-3 of 14.1 µM. For the same compound, in the data set on NHDF, the “IC50 NHDF” value is recorded as “have activity against normal cells” and half-maximal inhibition (IC50) was put at 9.16 µM. The compound further showed an IC50 with SNB-19 (Homo sapiens, SNB-19, 72 h) of 0.41 µM.

`CCCCn1cc(CN(C)S(=O)(=O)c2cccc3cccnc23)nn1` [Compound 12b, 8-N-Methyl-N-{[1-(1-butyl)-1H-1,2,3-triazol-4-yl]methyl}quinolinesulfonamide] registered a melting point of 74 to 75 °C. The compound also returned an IC50 with Caco-2 of 1.29 µM. For the same compound, the IC50 with A549 [2] was 189 µM. This compound yielded an IC50 with SKOV-3 of 80.4 µM. The compound further returned an IC50 in the data set on NHDF of 242 µM. In the data set on SNB-19 (Homo sapiens, SNB-19, 72 h), this compound had an IC50 of 63.6 µM.
